# Data reported in patent US10501461B2, “Tyrosine amide derivatives as Rho-kinase inhibitors” (CHIESI FARMACEUTICI S.P.A., priority 2017, dated 2019).
# How the values were obtained:
# Rho kinase 2 (ROCK-II) = Rho kinase 2 (ROCK-II) (Homo sapiens, UniProt O75116); assay: In vitro Rho kinase inhibitory activity assay (ADP-Glo), Rho kinase 2; format: biochemical; conditions: 10 μM ATP, 25° C., expressed as range of activity
# Procedure, shortened: (§1)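 Kinase activity is measured as ADP production (ADP-Glo, luminescence) after 1 hour at 25 °C with 10 μM ATP and 2.5 μM Myelin Basic Protein, following 30 min enzyme–compound preincubation. Buffer is 40 mM Tris pH7.5, 20 mM MgCl2, 0.1 mg/ml BSA, 50 μM DTT.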
# Rho kinase 1 (ROCK-I) = Rho kinase 1 (ROCK-I) (Homo sapiens, UniProt Q13464); assay: In vitro Rho kinase inhibitory activity assay (ADP-Glo), Rho kinase 1; format: biochemical; conditions: 10 μM ATP, 25° C., expressed as range of activity
# Rho kinase 1 (ROCK-I), sequence (Q13464 whole entry): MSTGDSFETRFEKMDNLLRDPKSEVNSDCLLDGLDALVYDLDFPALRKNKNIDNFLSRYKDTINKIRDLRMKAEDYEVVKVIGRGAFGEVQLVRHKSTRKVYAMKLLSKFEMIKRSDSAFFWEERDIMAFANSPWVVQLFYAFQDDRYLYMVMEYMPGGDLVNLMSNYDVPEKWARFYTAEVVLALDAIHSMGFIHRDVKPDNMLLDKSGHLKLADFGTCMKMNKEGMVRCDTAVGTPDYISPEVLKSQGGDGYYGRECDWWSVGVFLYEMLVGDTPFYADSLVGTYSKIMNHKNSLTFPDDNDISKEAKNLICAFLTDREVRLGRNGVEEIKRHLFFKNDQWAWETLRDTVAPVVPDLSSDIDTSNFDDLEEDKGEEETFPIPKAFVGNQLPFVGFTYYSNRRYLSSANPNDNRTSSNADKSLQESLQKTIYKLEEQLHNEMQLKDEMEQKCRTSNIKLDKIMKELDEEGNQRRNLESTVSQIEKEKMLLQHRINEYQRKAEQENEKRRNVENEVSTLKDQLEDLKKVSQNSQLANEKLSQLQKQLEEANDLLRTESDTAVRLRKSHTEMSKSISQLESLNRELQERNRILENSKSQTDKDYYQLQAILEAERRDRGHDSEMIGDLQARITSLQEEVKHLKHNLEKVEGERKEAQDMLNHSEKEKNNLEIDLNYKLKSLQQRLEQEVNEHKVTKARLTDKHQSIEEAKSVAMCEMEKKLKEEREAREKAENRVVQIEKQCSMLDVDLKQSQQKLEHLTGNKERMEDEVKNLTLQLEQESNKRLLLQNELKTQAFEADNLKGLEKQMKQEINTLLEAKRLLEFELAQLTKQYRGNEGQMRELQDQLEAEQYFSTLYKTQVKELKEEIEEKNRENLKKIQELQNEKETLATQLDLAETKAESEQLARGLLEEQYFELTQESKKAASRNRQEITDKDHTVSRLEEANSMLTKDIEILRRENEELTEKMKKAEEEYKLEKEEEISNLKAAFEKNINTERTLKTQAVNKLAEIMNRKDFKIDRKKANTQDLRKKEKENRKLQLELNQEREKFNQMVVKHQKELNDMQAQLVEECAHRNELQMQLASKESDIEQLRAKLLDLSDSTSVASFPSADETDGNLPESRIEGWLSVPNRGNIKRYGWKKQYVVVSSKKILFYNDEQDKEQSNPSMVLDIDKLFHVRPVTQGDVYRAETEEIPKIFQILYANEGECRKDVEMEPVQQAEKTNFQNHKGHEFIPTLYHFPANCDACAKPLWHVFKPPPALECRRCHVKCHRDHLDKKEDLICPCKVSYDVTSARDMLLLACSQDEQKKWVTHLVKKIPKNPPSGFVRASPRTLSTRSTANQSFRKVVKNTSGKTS
# Procedure, shortened: as §1
# Rho kinase 2 (ROCK-II), sequence (O75116 whole entry): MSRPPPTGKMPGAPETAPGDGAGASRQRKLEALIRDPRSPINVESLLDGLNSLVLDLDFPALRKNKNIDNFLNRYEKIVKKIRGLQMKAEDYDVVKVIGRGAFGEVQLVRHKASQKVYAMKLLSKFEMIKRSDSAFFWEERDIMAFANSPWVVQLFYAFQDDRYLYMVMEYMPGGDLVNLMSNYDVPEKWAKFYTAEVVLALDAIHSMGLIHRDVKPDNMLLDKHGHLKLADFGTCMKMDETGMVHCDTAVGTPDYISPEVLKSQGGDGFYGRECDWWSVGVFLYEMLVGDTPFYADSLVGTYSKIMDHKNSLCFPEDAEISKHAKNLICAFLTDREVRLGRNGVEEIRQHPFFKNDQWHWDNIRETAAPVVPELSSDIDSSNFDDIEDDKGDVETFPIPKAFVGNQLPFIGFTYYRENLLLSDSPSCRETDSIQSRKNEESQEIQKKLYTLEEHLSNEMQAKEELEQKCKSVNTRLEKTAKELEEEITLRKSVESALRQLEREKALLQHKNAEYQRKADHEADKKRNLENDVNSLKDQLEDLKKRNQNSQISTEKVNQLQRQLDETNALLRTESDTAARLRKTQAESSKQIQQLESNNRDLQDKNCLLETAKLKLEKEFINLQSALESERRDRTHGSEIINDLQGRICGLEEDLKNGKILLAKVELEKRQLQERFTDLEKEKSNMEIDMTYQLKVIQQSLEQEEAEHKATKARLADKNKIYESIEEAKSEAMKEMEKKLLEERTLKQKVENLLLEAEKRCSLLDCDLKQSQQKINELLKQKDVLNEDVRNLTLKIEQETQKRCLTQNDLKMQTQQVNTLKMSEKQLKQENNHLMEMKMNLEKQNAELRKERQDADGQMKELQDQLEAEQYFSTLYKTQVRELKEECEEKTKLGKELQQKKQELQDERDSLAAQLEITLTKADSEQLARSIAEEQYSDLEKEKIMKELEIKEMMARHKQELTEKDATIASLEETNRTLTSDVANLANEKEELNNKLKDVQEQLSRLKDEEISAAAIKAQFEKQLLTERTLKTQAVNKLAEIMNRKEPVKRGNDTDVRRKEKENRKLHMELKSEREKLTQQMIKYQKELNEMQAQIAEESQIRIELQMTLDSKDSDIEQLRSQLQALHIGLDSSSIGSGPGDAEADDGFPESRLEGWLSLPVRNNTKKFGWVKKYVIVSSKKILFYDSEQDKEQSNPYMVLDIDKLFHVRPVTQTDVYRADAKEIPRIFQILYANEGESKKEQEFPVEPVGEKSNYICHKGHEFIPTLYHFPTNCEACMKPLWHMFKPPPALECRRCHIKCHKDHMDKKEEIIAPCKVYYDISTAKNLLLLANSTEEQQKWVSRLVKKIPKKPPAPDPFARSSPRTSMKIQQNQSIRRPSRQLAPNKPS
Structure (SMILES),Ki (Rho kinase 2 (ROCK-II)),Ki (Rho kinase 1 (ROCK-I))
"Cc1c[nH]c2nccc(Oc3ccc(CC(N)C(=O)NCCc4ccncc4)cc3F)c12 (single isomer, unassigned) [Example 57A, 2-amino-3-(3-fluoro-4-((3-methyl-1H-pyrrolo[2,3-b]pyridin-4-yl)oxy)phenyl)-N-(2-(pyridin-4-yl)ethyl)propanamide]",< 3 nM,3 to 30 nM
"Cc1c[nH]c2nccc(Oc3ccc(C[C@H](N)C(=O)N4CCC(Cc5ccccc5)CC4)cc3F)c12 [Example 13, (S)-2-amino-1-(4-benzylpiperidin-1-yl)-3-(3-fluoro-4-((3-methyl-1H-pyrrolo[2,3-b]pyridin-4-yl)oxy)phenyl)propan-1-one]",< 3 nM,< 3 nM
"CN1CCC(NC(=O)[C@H](N)Cc2ccc(Oc3ccnc4[nH]ccc34)cc2)CC1 [Example 104, (R)-3-(4-((1H-pyrrolo[2,3-b]pyridin-4-yl)oxy)phenyl)-2-amino-N-(1-methylpiperidin-4-yl)propanamide]",> 30 nM,> 30 nM
"Cc1c[nH]c2nccc(Oc3ccc(C[C@H](N)C(=O)NC4(CCO)CCCCC4)cc3F)c12 [Example 36, (S)-2-amino-3-(3-fluoro-4-((3-methyl-1H-pyrrolo[2,3-b]pyridin-4-yl)oxy)phenyl)-N-(1-(2-hydroxyethyl)cyclohexyl)propanamide]",< 3 nM,< 3 nM
"Cc1c[nH]c2nccc(Oc3ccc(C[C@H](N)C(=O)N[C@H]4CN5CCC4CC5)cc3F)c12 [Example 46, (S)-2-amino-3-(3-fluoro-4-((3-methyl-1H-pyrrolo[2,3-b]pyridin-4-yl)oxy)phenyl)-N-((R)-quinuclidin-3-yl)propanamide]",< 3 nM,< 3 nM
"Cc1c[nH]c2ncnc(Oc3ccc(C[C@H](N)C(=O)N4CCN(Cc5ccccc5)CC4)cc3F)c12 [Example 115, (S)-2-amino-1-(4-benzylpiperazin-1-yl)-3-(3-fluoro-4-((5-methyl-7H-pyrrolo[2,3-d]pyrimidin-4-yl)oxy)phenyl)propan-1-one]",< 3 nM,< 3 nM
"CN(Cc1ccccc1)C(=O)[C@@H](N)Cc1ccc(Oc2ccnc3[nH]ccc23)cc1 [Example 93, (S)-3-(4-((1H-pyrrolo[2,3-b]pyridin-4-yl)oxy)phenyl)-2-amino-N-benzyl-N-methylpropanamide]",3 to 30 nM,3 to 30 nM
"NC(Cc1ccc(Oc2ccnc3[nH]ccc23)cc1)C(=O)Nc1ccc(C(F)(F)F)cc1 (stereo not shown) [Example 91, 3-(4-((1H-pyrrolo[2,3-b]pyridin-4-yl)oxy)phenyl)-2-amino-N-(4-(trifluoromethyl)phenyl)propanamide]",< 3 nM,3 to 30 nM
"Cc1c[nH]c2nccc(Oc3ccc(C[C@H](N)C(=O)N4CCN(C(=O)C5CCN(C)CC5)CC4)cc3F)c12 [Example 171, (S)-2-amino-3-(3-fluoro-4-((3-methyl-1H-pyrrolo[2,3-b]pyridin-4-yl)oxy)phenyl)-1-(4-(1-methylpiperidine-4-carbonyl)piperazin-1-yl)propan-1-one]",3 to 30 nM,3 to 30 nM
"N[C@@H](Cc1ccc(Oc2ccnc3[nH]cc(CO)c23)c(F)c1)C(=O)N1CCN(Cc2ccccn2)CC1 [Example 213, (S)-2-amino-3-(3-fluoro-4-((3-(hydroxymethyl)-1H-pyrrolo[2,3-b]pyridin-4-yl)oxy)phenyl)-1-(4-(pyridin-2-ylmethyl)piperazin-1-yl)propan-1-one]",< 3 nM,< 3 nM
"Cc1c[nH]c2nccc(Oc3ccc(CC(N)C(=O)N4CCc5ccncc5C4)cc3F)c12 (stereo not shown) [Example 67, 2-amino-1-(3,4-dihydro-2,7-naphthyridin-2(1H)-yl)-3-(3-fluoro-4-((3-methyl-1H-pyrrolo[2,3-b]pyridin-4-yl)oxy)phenyl)propan-1-one]",< 3 nM,< 3 nM
"N[C@@H](Cc1ccc(Oc2ccnc3[nH]cc(C4=CCNC4)c23)cc1)C(=O)N1CCN(Cc2ccccc2)CC1 [Example 202, (S)-2-amino-1-(4-benzylpiperazin-1-yl)-3-(4-((3-(2,5-dihydro-1H-pyrrol-3-yl)-1H-pyrrolo[2,3-b]pyridin-4-yl)oxy)phenyl)propan-1-one]",3 to 30 nM,3 to 30 nM
"CN(C)C(=O)C(N)Cc1ccc(Oc2ccnc3[nH]ccc23)cc1 (stereo not shown) [Example 113, 3-(4-((1H-pyrrolo[2,3-b]pyridin-4-yl)oxy)phenyl)-2-amino-N,N-dimethylpropanamide]",3 to 30 nM,> 30 nM
"CC(=O)N1CCN(C(=O)C(N)Cc2ccc(Oc3ccnc4[nH]cc(C)c34)c(F)c2)CC1 (stereo not shown) [Example 133, 1-(4-acetylpiperazin-1-yl)-2-amino-3-(3-fluoro-4-((3-methyl-1H-pyrrolo[2,3-b]pyridin-4-yl)oxy)phenyl)propan-1-one]",< 3 nM,< 3 nM
"Cc1c[nH]c2nccc(Oc3ccc(C[C@H](N)C(=O)N4CCN(CC5CCN(S(C)(=O)=O)CC5)CC4)cc3F)c12 [Example 161, (S)-2-amino-3-(3-fluoro-4-((3-methyl-1H-pyrrolo[2,3-b]pyridin-4-yl)oxy)phenyl)-1-(4-((1-(methylsulfonyl)piperidin-4-yl)methyl)piperazin-1-yl)propan-1-one]",< 3 nM,< 3 nM
"N[C@@H](Cc1ccc(Oc2ccnc3[nH]cc(I)c23)cc1)C(=O)NC1CCCCC1 [Example 190, (S)-2-amino-N-cyclohexyl-3-(4-((3-iodo-1H-pyrrolo[2,3-b]pyridin-4-yl)oxy)phenyl)propanamide]",< 3 nM,< 3 nM
"Cc1cccc(CN2CCN(C(=O)C(N)Cc3ccc(Oc4ccnc5[nH]cc(C)c45)c(F)c3)CC2)c1 (stereo not shown) [Example 73, 2-amino-3-(3-fluoro-4-((3-methyl-1H-pyrrolo[2,3-b]pyridin-4-yl)oxy)phenyl)-1-(4-(3-methylbenzyl)piperazin-1-yl)propan-1-one]",< 3 nM,< 3 nM
"Cc1ccc(CN2CCN(C(=O)C(N)Cc3ccc(Oc4ccnc5[nH]cc(C)c45)c(F)c3)CC2)cc1 (stereo not shown) [Example 72, 2-amino-3-(3-fluoro-4-((3-methyl-1H-pyrrolo[2,3-b]pyridin-4-yl)oxy)phenyl)-1-(4-(4-methylbenzyl)piperazin-1-yl)propan-1-one]",< 3 nM,< 3 nM
"Cc1c[nH]c2ncnc(Oc3ccc(C[C@H](N)C(=O)NCCc4ccncc4)cc3F)c12 [Example 128, (S)-2-amino-3-(3-fluoro-4-((5-methyl-7H-pyrrolo[2,3-d]pyrimidin-4-yl)oxy)phenyl)-N-(2-(pyridin-4-yl)ethyl)propanamide]",< 3 nM,< 3 nM
"N[C@H](Cc1ccc(Oc2ccnc3[nH]ccc23)cc1)C(=O)NCc1ccccc1 [Example 98, (R)-3-(4-((1H-pyrrolo[2,3-b]pyridin-4-yl)oxy)phenyl)-2-amino-N-benzylpropanamide]",> 30 nM,> 30 nM
"Cc1c[nH]c2nccc(Oc3ccc(CC(N)C(=O)Nc4cccc5cnccc45)cc3F)c12 (stereo not shown) [Example 78, 2-amino-3-(3-fluoro-4-((3-methyl-1H-pyrrolo[2,3-b]pyridin-4-yl)oxy)phenyl)-N-(isoquinolin-5-yl)propanamide]",< 3 nM,< 3 nM
"Cc1c[nH]c2nccc(Oc3ccc(CC(N)C(=O)N4CCN(C5CC5)CC4)cc3F)c12 (stereo not shown) [Example 60, 2-amino-1-(4-cyclopropylpiperazin-1-yl)-3-(3-fluoro-4-((3-methyl-1H-pyrrolo[2,3-b]pyridin-4-yl)oxy)phenyl)propan-1-one]",< 3 nM,< 3 nM
"Cc1c[nH]c2nccc(Oc3ccc(C[C@H](N)C(=O)NC4(CN(C)C)CCCCC4)cc3F)c12 [Example 38, (S)-2-amino-N-(1-((dimethylamino)methyl)cyclohexyl)-3-(3-fluoro-4-((3-methyl-1H-pyrrolo[2,3-b]pyridin-4-yl)oxy)phenyl)propanamide]",< 3 nM,< 3 nM
"N[C@@H](Cc1ccc(Oc2ccnc3[nH]ccc23)cc1)C(=O)NCC1CCCCC1 [Example 107, (S)-3-(4-((1H-pyrrolo[2,3-b]pyridin-4-yl)oxy)phenyl)-2-amino-N-(cyclohexylmethyl)propanamide]",< 3 nM,< 3 nM
"N[C@@H](Cc1ccc(Oc2ccnc3[nH]cc(C4=CCOC4)c23)cc1)C(=O)N1CCN(Cc2ccccc2)CC1 [Example 201, (S)-2-amino-1-(4-benzylpiperazin-1-yl)-3-(4-((3-(2,5-dihydrofuran-3-yl)-1H-pyrrolo[2,3-b]pyridin-4-yl)oxy)phenyl)propan-1-one]",< 3 nM,< 3 nM
"Cc1c[nH]c2nccc(Oc3ccc(C[C@H](N)C(=O)NC4CCCCC4)cc3)c12 [Example 141, (S)-2-amino-N-cyclohexyl-3-(4-((3-methyl-1H-pyrrolo[2,3-b]pyridin-4-yl)oxy)phenyl)propanamide]",< 3 nM,< 3 nM
"Cc1c[nH]c2nccc(Oc3ccc(C[C@H](N)C(=O)NC4(C(N)=O)CCCCC4)cc3F)c12 [Example 35, (S)-1-(2-amino-3-(3-fluoro-4-((3-methyl-1H-pyrrolo[2,3-b]pyridin-4-yl)oxy)phenyl)propanamido)cyclohexanecarboxamide]",< 3 nM,< 3 nM
"N#Cc1c[nH]c2nccc(Oc3ccc(C[C@H](N)C(=O)NC4CCOCC4)cc3)c12 [Example 218, (S)-2-amino-3-(4-((3-cyano-1H-pyrrolo[2,3-b]pyridin-4-yl)oxy)phenyl)-N-(tetrahydro-2H-pyran-4-yl)propanamide]",< 3 nM,< 3 nM
"Cc1c[nH]c2ncnc(Oc3ccc(C[C@H](N)C(=O)N4CCN(C5CC5)CC4)cc3F)c12 [Example 119, (S)-2-amino-1-(4-cyclopropylpiperazin-1-yl)-3-(3-fluoro-4-((5-methyl-7H-pyrrolo[2,3-d]pyrimidin-4-yl)oxy)phenyl)propan-1-one]",< 3 nM,< 3 nM
